Data as given in ChEMBL document CHEMBL1201861, “Genomics of Drug Sensitity in Cancer screening data, Wellcome Trust Sanger Institute”.
pIC50: −log10 of the molar value. Structures can show the parent of a compound that is named as a salt.

Assays:
SU-DHL-1 = assay: SANGER: Inhibition of human SU-DHL-1 cell growth in a cell viability assay.; assay type: functional, cell-based
CAL-51 = assay: cells; assay type: functional, cell-based, Homo sapiens;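 further: human CAL-51 cell line, growth inhibition read out via a cell viability assay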
Description: SANGER: Inhibition of human CAL-51 cell growth in a cell viability assay.

LN-405 = assay: cells; assay type: functional, cell-based, Homo sapiens
Description: SANGER: Inhibition of human LN-405 cell growth in a cell viability assay.

Ca9-22 = assay: cells; assay type: functional, cell-based, Homo sapiens;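 further: growth inhibition of Ca9-22 cells, read out with a cell viability assay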
Description: SANGER: Inhibition of human Ca9-22 cell growth in a cell viability assay.

CAL-39 = assay: cells; assay type: functional, cell-based, Homo sapiens;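 further: cell viability assay measuring growth inhibition of CAL-39 cells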
Description: SANGER: Inhibition of human CAL-39 cell growth in a cell viability assay.

SW756 = assay: cells; assay type: functional, cell-based, Homo sapiens;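 further: growth inhibition of human SW756 cells, read out with a cell viability assay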
Description: SANGER: Inhibition of human SW756 cell growth in a cell viability assay.

HCC38 = assay: cells; assay type: functional, cell-based, Homo sapiens;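 further: cell viability assay on the human HCC38 cell line, with IC50 marking the concentration that inhibits cell growth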
Description: SANGER: Inhibition of human HCC38 cell growth in a cell viability assay.

PANC-03-27 = assay: cells; assay type: functional, cell-based, Homo sapiens
Description: SANGER: Inhibition of human PANC-03-27 cell growth in a cell viability assay.

SW780 = assay: cells; assay type: functional, cell-based, Homo sapiens;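 further: growth inhibition of the cells, read out with a cell viability assay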
Description: SANGER: Inhibition of human SW780 cell growth in a cell viability assay.

NCI-H1993 = assay: cells; assay type: functional, cell-based, Homo sapiens;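 further: growth inhibition of the cancer cell line, assessed with a cell viability assay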
Description: SANGER: Inhibition of human NCI-H1993 cell growth in a cell viability assay.

CaR-1 = assay: cells; assay type: functional, cell-based, Homo sapiens;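 further: growth inhibition of human CaR-1 cancer cells, read out with a cell viability assay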
Description: SANGER: Inhibition of human CaR-1 cell growth in a cell viability assay.

NB1 = assay: cells; assay type: functional, cell-based, Homo sapiens
Description: SANGER: Inhibition of human NB1 cell growth in a cell viability assay.

UACC-62 = assay: cells; assay type: functional, cell-based, Homo sapiens;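 further: growth inhibition of human UACC-62 cells, read out by a cell viability assay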
Description: SANGER: Inhibition of human UACC-62 cell growth in a cell viability assay.

639-V = assay: cells; assay type: functional, cell-based, Homo sapiens;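 further: growth inhibition of 639-V cells, read out with a cell viability assay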
Description: SANGER: Inhibition of human 639-V cell growth in a cell viability assay.

NCI-H64 = assay: cells; assay type: functional, cell-based, Homo sapiens;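 further: growth inhibition of NCI-H64 cells, read out with a cell viability assay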
Description: SANGER: Inhibition of human NCI-H64 cell growth in a cell viability assay.

H4 = assay: cells; assay type: functional, cell-based, Homo sapiens
Description: SANGER: Inhibition of human H4 cell growth in a cell viability assay.

GMS-10 = assay: cells; assay type: functional, cell-based, Homo sapiens;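 further: growth inhibition of GMS-10 cells, read out as cell viability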
Description: SANGER: Inhibition of human GMS-10 cell growth in a cell viability assay.

HN = assay: cells; assay type: functional, cell-based, Homo sapiens
Description: SANGER: Inhibition of human HN cell growth in a cell viability assay.

HTC-C3 = assay: cells; assay type: functional, cell-based, Homo sapiens;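 further: inhibition of cell growth, read out with a cell viability assay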
Description: SANGER: Inhibition of human HTC-C3 cell growth in a cell viability assay.

CAL-62 = assay: cells; assay type: functional, cell-based, Homo sapiens;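 further: growth inhibition of CAL-62 cells, read out with a cell viability assay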
Description: SANGER: Inhibition of human CAL-62 cell growth in a cell viability assay.

NCI-H1793 = assay: cells; assay type: functional, cell-based, Homo sapiens;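 further: cell growth inhibition, read out by a cell viability assay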
Description: SANGER: Inhibition of human NCI-H1793 cell growth in a cell viability assay.

SAS = assay: cells; assay type: functional, cell-based, Homo sapiens;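 further: growth inhibition of SAS cells, read out with a cell viability assay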
Description: SANGER: Inhibition of human SAS cell growth in a cell viability assay.

MKN-1 = assay: cells; assay type: functional, cell-based, Homo sapiens;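 further: growth inhibition of human MKN1 cells, read out by a cell viability measurement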
Description: SANGER: Inhibition of human MKN1 cell growth in a cell viability assay.

LCLC-97TM1 = assay: cells; assay type: functional, cell-based, Homo sapiens;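 further: cell viability assay measuring growth inhibition of human LCLC-97TM1 cells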
Description: SANGER: Inhibition of human LCLC-97TM1 cell growth in a cell viability assay.

KYSE-510 = assay: cells; assay type: functional, cell-based, Homo sapiens;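 further: cell viability readout used to measure how strongly growth of the cell line is suppressed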
Description: SANGER: Inhibition of human KYSE-510 cell growth in a cell viability assay.

BHT-101 = assay: cells; assay type: functional, cell-based, Homo sapiens
Description: SANGER: Inhibition of human BHT-101 cell growth in a cell viability assay.

LC-1F = assay: cells; assay type: functional, cell-based, Homo sapiens;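 further: growth inhibition of human LC-1F cells, read out with a cell viability assay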
Description: SANGER: Inhibition of human LC-1F cell growth in a cell viability assay.

NCI-H716 = assay: cells; assay type: functional, cell-based, Homo sapiens;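 further: growth inhibition of human NCI-H716 cells, measured by a cell viability assay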
Description: SANGER: Inhibition of human NCI-H716 cell growth in a cell viability assay.

LU-99A = assay: cells; assay type: functional, cell-based, Homo sapiens;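 further: growth inhibition of LU-99A cells, read out with a cell viability assay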
Description: SANGER: Inhibition of human LU-99A cell growth in a cell viability assay.

NCCIT = assay: SANGER: Inhibition of human NCCIT cell growth in a cell viability assay.; assay type: functional, cell-based
CMK = assay: cells; assay type: functional, cell-based, Homo sapiens;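 further: growth inhibition of CMK cells, read out as cell viability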
Description: SANGER: Inhibition of human CMK cell growth in a cell viability assay.

IGROV-1 = assay: cells; assay type: functional, cell-based, Homo sapiens;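 further: reduction of IGROV-1 cell growth, read out with a viability assay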
Description: SANGER: Inhibition of human IGROV-1 cell growth in a cell viability assay.

C3A = assay: cells; assay type: functional, cell-based, Homo sapiens;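 further: growth inhibition of C3A human cells, quantified with a cell viability readout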
Description: SANGER: Inhibition of human C3A cell growth in a cell viability assay.

T-24 = assay: cells; assay type: functional, cell-based, Homo sapiens;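 further: growth inhibition of T-24 cells, read out with a cell viability assay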
Description: SANGER: Inhibition of human T-24 cell growth in a cell viability assay.

HCT-15 = assay: cells; assay type: functional, cell-based, Homo sapiens;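 further: cell viability readout, IC50 reflecting suppression of HCT-15 cell growth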
Description: SANGER: Inhibition of human HCT-15 cell growth in a cell viability assay.

SW48 = assay: cells; assay type: functional, cell-based, Homo sapiens;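 further: growth inhibition of SW48 cells, read out with a cell viability assay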
Description: SANGER: Inhibition of human SW48 cell growth in a cell viability assay.

NCI-H1417 = assay: cells; assay type: functional, cell-based, Homo sapiens;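 further: human NCI-H1417 cells, growth inhibition determined with a cell viability readout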
Description: SANGER: Inhibition of human NCI-H1417 cell growth in a cell viability assay.

TE-15 = assay: cells; assay type: functional, cell-based, Homo sapiens;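 further: cell viability readout of growth inhibition in TE-15 cells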
Description: SANGER: Inhibition of human TE-15 cell growth in a cell viability assay.

HEC-1 = assay: cells; assay type: functional, cell-based, Homo sapiens;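 further: growth inhibition of the cell line, read out with a cell viability assay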
Description: SANGER: Inhibition of human HEC-1 cell growth in a cell viability assay.

VM-CUB-1 = assay: cells; assay type: functional, cell-based, Homo sapiens;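 further: cell viability assay measuring growth inhibition of the human VM-CUB-1 cell line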
Description: SANGER: Inhibition of human VM-CUB-1 cell growth in a cell viability assay.

NCI-H358 = assay: cells; assay type: functional, cell-based, Homo sapiens;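 further: growth inhibition of NCI-H358 human cells, read out with a cell viability assay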
Description: SANGER: Inhibition of human NCI-H358 cell growth in a cell viability assay.

HuO-3N1 = assay: cells; assay type: functional, cell-based, Homo sapiens;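 further: cell viability readout used to measure how strongly compounds suppress proliferation of human HuO-3N1 cells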
Description: SANGER: Inhibition of human HuO-3N1 cell growth in a cell viability assay.

NCI-H1623 = assay: cells; assay type: functional, cell-based, Homo sapiens;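 further: cell viability assay used as the read-out for growth inhibition of NCI-H1623 cells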
Description: SANGER: Inhibition of human NCI-H1623 cell growth in a cell viability assay.

S-117 = assay: cells; assay type: functional, cell-based, Homo sapiens
Description: SANGER: Inhibition of human S-117 cell growth in a cell viability assay.

NCI-H661 = assay: cells; assay type: functional, cell-based, Homo sapiens;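 further: cell viability assay read-out, IC50 being the concentration that inhibits growth of the cells by half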
Description: SANGER: Inhibition of human NCI-H661 cell growth in a cell viability assay.

CP50-MEL-B = assay: cells; assay type: functional, cell-based, Homo sapiens;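 further: growth inhibition of the human cell line, measured with a cell viability read-out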
Description: SANGER: Inhibition of human CP50-MEL-B cell growth in a cell viability assay.

ZR-75-30 = assay: cells; assay type: functional, cell-based, Homo sapiens; settings: Homo sapiens, ZR-75-30;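 further: growth inhibition of ZR-75-30 cells, measured with a cell viability readout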
Description: SANGER: Inhibition of human ZR-75-30 cell growth in a cell viability assay.

NB14 = assay: cells; assay type: functional, cell-based, Homo sapiens; settings: Homo sapiens, NB14;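 further: growth inhibition of NB14 cells measured with a cell viability assay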
Description: SANGER: Inhibition of human NB14 cell growth in a cell viability assay.

Work on `COC1=CC(c2cc3ccccc3[nH]2)=N/C1=C\c1[nH]c(C)cc1C` [OBATOCLAX MESYLATE] yielded a pIC50 (SU-DHL-1; Homo sapiens, SU-DHL-1) of 5.90, a pIC50 (CAL-51; Homo sapiens, CAL-51) of 7.40 and a pIC50 (LN-405; Homo sapiens, LN-405) of 5.86. For the same molecule, the pIC50 (Ca9-22; Homo sapiens, Ca9-22) was 6.95, the pIC50 (CAL-39; Homo sapiens, CAL-39) was 6.64 and the pIC50 (SW756; Homo sapiens, SW756) was 7.42. The pIC50 (HCC38; Homo sapiens, HCC38) was 5.62, the pIC50 (PANC-03-27; Homo sapiens, PANC-03-27) was 7.01 and the pIC50 (SW780; Homo sapiens, SW780) was 5.96. It also gave a pIC50 (NCI-H1993; Homo sapiens, NCI-H1993) of less than 4.80, a pIC50 (CaR-1; Homo sapiens, CaR-1) of 5.40 and a pIC50 (NB1; Homo sapiens, NB1) of 6.55. The pIC50 (UACC-62; Homo sapiens, UACC-62) was 6.52, the pIC50 (639-V; Homo sapiens, 639-V) was 6.81 and the pIC50 (NCI-H64; Homo sapiens, NCI-H64) was 7.42. It also gave a pIC50 (H4; Homo sapiens, H4) of 5.94, a pIC50 (GMS-10; Homo sapiens, GMS-10) of 5.59 and a pIC50 (HN; Homo sapiens, HN) greater than 7.20. The pIC50 (HTC-C3; Homo sapiens, HTC-C3) was 6.98, the pIC50 (CAL-62; Homo sapiens, CAL-62) was 7.58 and the pIC50 (NCI-H1793; Homo sapiens, NCI-H1793) was less than 4.80. For the same molecule, the pIC50 (SAS; Homo sapiens, SAS) was 6.56, the pIC50 (MKN-1; Homo sapiens, MKN-1) was 6.52 and the pIC50 (LCLC-97TM1; Homo sapiens, LCLC-97TM1) was 7.25. The pIC50 (KYSE-510; Homo sapiens, KYSE-510) was greater than 7.20, the pIC50 (BHT-101; Homo sapiens, BHT-101) was greater than 7.20 and the pIC50 (LC-1F; Homo sapiens, LC-1F) was 5.43. It also gave a pIC50 (NCI-H716; Homo sapiens, NCI-H716) of 5.77, a pIC50 (LU-99A; Homo sapiens, LU-99A) of 6.11 and a pIC50 (NCCIT; Homo sapiens, NCCIT) of 5.86. The pIC50 (CMK; Homo sapiens, CMK) was 7.52, the pIC50 (IGROV-1; Homo sapiens, IGROV-1) was greater than 7.20 and the pIC50 (C3A; Homo sapiens, C3A) was 6.43. The pIC50 (T-24; Homo sapiens, T-24) was 5.00, the pIC50 (HCT-15; Homo sapiens, HCT-15) was 6.65 and the pIC50 (SW48; Homo sapiens, SW48) was 6.11. The pIC50 (NCI-H1417; Homo sapiens, NCI-H1417) was 6.58, the pIC50 (TE-15; Homo sapiens, TE-15) was 6.69 and the pIC50 (HEC-1; Homo sapiens, HEC-1) was 7.43. The pIC50 (VM-CUB-1; Homo sapiens, VM-CUB-1) was 6.15, the pIC50 (NCI-H358; Homo sapiens, NCI-H358) was 7.10 and the pIC50 (HuO-3N1; Homo sapiens, HuO-3N1) was 6.40. The pIC50 (NCI-H1623; Homo sapiens, NCI-H1623) was 5.51, the pIC50 (S-117; Homo sapiens, S-117) was 7.54 and the pIC50 (NCI-H661; Homo sapiens, NCI-H661) was 5.88. For the same molecule, the pIC50 (CP50-MEL-B; Homo sapiens, CP50-MEL-B) was 7.06.

Work on `Cn1cnc2c(F)c(Nc3ccc(Br)cc3Cl)c(C(=O)NOCCO)cc21` [SELUMETINIB] yielded a pIC50 (CAL-51; Homo sapiens, CAL-51) of less than 5.40, a pIC50 (LN-405; Homo sapiens, LN-405) of less than 5.40 and a pIC50 (Ca9-22; Homo sapiens, Ca9-22) of 5.62. It also gave a pIC50 (CAL-39; Homo sapiens, CAL-39) of 6.48, a pIC50 (SW756; Homo sapiens, SW756) of less than 5.40 and a pIC50 (HCC38; Homo sapiens, HCC38) of less than 5.40. The pIC50 (ZR-75-30) was less than 5.40, the pIC50 (PANC-03-27; Homo sapiens, PANC-03-27) was less than 5.40 and the pIC50 (SW780; Homo sapiens, SW780) was 6.18. It also gave a pIC50 (NCI-H1993; Homo sapiens, NCI-H1993) of less than 5.40, a pIC50 (CaR-1; Homo sapiens, CaR-1) of less than 5.40 and a pIC50 (UACC-62; Homo sapiens, UACC-62) of less than 5.40. It also gave a pIC50 (639-V; Homo sapiens, 639-V) of less than 5.40, a pIC50 (H4; Homo sapiens, H4) of less than 5.40 and a pIC50 (GMS-10; Homo sapiens, GMS-10) of less than 5.40. It also gave a pIC50 (HN; Homo sapiens, HN) of 6.00, a pIC50 (HTC-C3; Homo sapiens, HTC-C3) of 6.67 and a pIC50 (CAL-62; Homo sapiens, CAL-62) of 5.82. For the same molecule, the pIC50 (NCI-H1793; Homo sapiens, NCI-H1793) was less than 5.40, the pIC50 (SAS; Homo sapiens, SAS) was less than 5.40 and the pIC50 (LCLC-97TM1; Homo sapiens, LCLC-97TM1) was 5.99. It also gave a pIC50 (KYSE-510; Homo sapiens, KYSE-510) of less than 5.40, a pIC50 (BHT-101; Homo sapiens, BHT-101) of 6.97 and a pIC50 (LU-99A; Homo sapiens, LU-99A) of less than 5.40. The pIC50 (NB14) was less than 5.40, the pIC50 (IGROV-1; Homo sapiens, IGROV-1) was less than 5.40 and the pIC50 (C3A; Homo sapiens, C3A) was less than 5.40. For the same molecule, the pIC50 (T-24; Homo sapiens, T-24) was less than 5.40, the pIC50 (SW48; Homo sapiens, SW48) was less than 5.40 and the pIC50 (HEC-1; Homo sapiens, HEC-1) was less than 5.40. The pIC50 (VM-CUB-1; Homo sapiens, VM-CUB-1) was 5.40, the pIC50 (HuO-3N1; Homo sapiens, HuO-3N1) was less than 5.40 and the pIC50 (NCI-H1623; Homo sapiens, NCI-H1623) was less than 5.40. The pIC50 (S-117; Homo sapiens, S-117) was less than 5.40, the pIC50 (NCI-H661; Homo sapiens, NCI-H661) was less than 5.40 and the pIC50 (CP50-MEL-B; Homo sapiens, CP50-MEL-B) was 6.89.

BLEOMYCIN gave a pIC50 (SU-DHL-1; su-dhl-1) of 5.69, a pIC50 (CAL-51; cal-51) of 10.00 and a pIC50 (LN-405; ln-405) of 3.40. It also gave a pIC50 (Ca9-22; ca9-22) of 6.13, a pIC50 (CAL-39; cal-39) of 9.50 and a pIC50 (SW756; sw756) of 4.94. It also gave a pIC50 (HCC38; hcc38) of 7.51, a pIC50 (PANC-03-27; panc-03-27) of 6.50 and a pIC50 (SW780; sw780) of 2.09. It also gave a pIC50 (NCI-H1993; nci-h1993) of 3.19, a pIC50 (CaR-1; car-1) of 5.35 and a pIC50 (NB1; nb1) of 4.94. It also gave a pIC50 (UACC-62; uacc-62) of 3.73, a pIC50 (639-V; 639-v) of 6.66 and a pIC50 (NCI-H64; nci-h64) of 6.19. The pIC50 (H4; h4) was 6.49, the pIC50 (GMS-10; gms-10) was 2.68 and the pIC50 (HN; hn) was 4.54. For the same molecule, the pIC50 (HTC-C3; htc-c3) was 4.11, the pIC50 (CAL-62; cal-62) was 5.48 and the pIC50 (NCI-H1793; nci-h1793) was 4.57. It also gave a pIC50 (SAS; sas) of 5.49, a pIC50 (MKN-1; mkn-1) of 7.10 and a pIC50 (LCLC-97TM1; lclc-97tm1) of 5.83. The pIC50 (KYSE-510; kyse-510) was 5.73, the pIC50 (BHT-101; bht-101) was 5.13 and the pIC50 (LC-1F; lc-1f) was 4.31. It also gave a pIC50 (NCI-H716; nci-h716) of 2.85, a pIC50 (LU-99A; lu-99a) of 8.37 and a pIC50 (NCCIT; nccit) of 5.97. For the same molecule, the pIC50 (CMK; cmk) was 4.83, the pIC50 (IGROV-1; igrov-1) was 6.84 and the pIC50 (C3A; c3a) was 6.53. The pIC50 (T-24; t-24) was 6.14, the pIC50 (HCT-15; hct-15) was 7.02 and the pIC50 (SW48; sw48) was 6.26. For the same molecule, the pIC50 (NCI-H1417; nci-h1417) was 4.52, the pIC50 (TE-15; te-15) was 5.49 and the pIC50 (HEC-1; hec-1) was 4.56. The pIC50 (VM-CUB-1; vm-cub-1) was 5.31, the pIC50 (NCI-H358; nci-h358) was 6.43 and the pIC50 (HuO-3N1; huo-3n1) was 4.06. For the same molecule, the pIC50 (NCI-H1623; nci-h1623) was 4.41, the pIC50 (S-117; s-117) was 4.04 and the pIC50 (NCI-H661; nci-h661) was 5.55. For the same molecule, the pIC50 (CP50-MEL-B; cp50-mel-b) was 2.40.
